Results as given in US20140288052A1, “SUBSTITUTED BICYCLIC AZA-HETEROCYCLES AND ANALOGUES AS SIRTUIN MODULATORS” (GlaxoSmithKline, LLC, priority 2011, published 2014).

Key:
SIRT1 [1] = biological target: T1, SIRT1 (Homo sapiens, UniProt Q96EB6); assay: TAMRA based mass spectrometry assay of SIRT1 deacetylase activation; format: biochemical; conditions: TAMRA peptide substrate; for TAMRA EC1.5 (μM): concentration that results in 150% activation of SIRT1; for TAMRA % Fold Act: percent maximum fold activation relative to control (100%)
T1 sequence (Q96EB6 1-747): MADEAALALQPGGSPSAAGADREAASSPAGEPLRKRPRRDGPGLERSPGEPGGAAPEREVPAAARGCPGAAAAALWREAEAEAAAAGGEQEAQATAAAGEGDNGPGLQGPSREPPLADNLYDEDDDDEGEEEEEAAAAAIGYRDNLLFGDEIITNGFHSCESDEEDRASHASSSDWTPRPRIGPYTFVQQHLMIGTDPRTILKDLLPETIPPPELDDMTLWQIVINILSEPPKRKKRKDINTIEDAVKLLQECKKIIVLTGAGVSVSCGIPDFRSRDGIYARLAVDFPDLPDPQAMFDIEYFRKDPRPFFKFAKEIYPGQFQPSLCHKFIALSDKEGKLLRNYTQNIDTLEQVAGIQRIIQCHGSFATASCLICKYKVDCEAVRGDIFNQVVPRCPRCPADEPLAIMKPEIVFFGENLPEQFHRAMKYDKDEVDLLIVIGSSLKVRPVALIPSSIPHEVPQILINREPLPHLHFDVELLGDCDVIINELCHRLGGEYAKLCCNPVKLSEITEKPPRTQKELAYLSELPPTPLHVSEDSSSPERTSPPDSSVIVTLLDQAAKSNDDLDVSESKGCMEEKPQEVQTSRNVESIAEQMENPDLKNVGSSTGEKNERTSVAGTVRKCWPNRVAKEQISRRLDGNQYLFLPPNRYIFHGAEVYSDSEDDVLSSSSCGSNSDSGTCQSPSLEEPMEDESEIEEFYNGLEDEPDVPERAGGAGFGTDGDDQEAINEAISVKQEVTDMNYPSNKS
Description: (§1) Mass spectrometry based assays were used to identify modulators of SIRT1 activity. The TAMRA based assay utilized a peptide having 20 amino acid residues as follows: Ac-EE-K(biotin)-GQSTSSHSK(Ac)NleSTEG-K(5TMR)-EE-NH2 (SEQ ID NO: 1), wherein K(Ac) is an acetylated lysine residue and Nle is a norleucine. The peptide was labeled with the fluorophore 5TMR (excitation 540 nm/emission 580 nm) at the C-terminus. The sequence of the peptide substrate was based on p53 with several modifications. In addition, the methionine residue naturally present in the sequence was replaced with the norleucine because the methionine may be susceptible to oxidation during synthesis and purification. The Trp based assay utilized a peptide having an amino acid residues as follows: Ac-R-H-K-K(Ac)-W-NH2 (SEQ ID NO: 2).
The TAMRA based mass spectrometry assay was conducted as follows: 0.5 μM peptide substrate and 120 μM βNAD^+ was incubated with 10 nM SIRT1 for 25 minutes at 25° C. in a reaction buffer (50 mM Tris-acetate pH 8, 137 mM NaCl, 2.7 mM KCl, 1 mM MgCl2, 5 mM DTT, 0.05% BSA). The SIRT1 protein was obtained by cloning the SirT1 gene into a T7-promoter containing vector, which was then transformed and expressed in BL21(DE3) bacterial cells. Test compound was added at varying concentrations to this reaction mixture and the resulting reactions were monitored. After the 25 minute incubation with SIRT1, 10 μL of 10% formic acid was added to stop the reaction. The resulting reactions were sealed and frozen for later mass spec analysis. Determination of the amount of deacetylated substrate peptide formed (or, alternatively, the amount of O-acetyl-ADP-ribose (OAADPR) generated) by the sirtuin-mediated NAD-dependent deacetylation reaction allowed for the precise measurement of relative SIRT1 activity in the presence of varying concentrations of the test compound versus control reactions lacking the test compound.
(§2) A control for inhibition of sirtuin activity was conducted by adding 1 μL of 500 mM nicotinamide as a negative control at the start of the reaction (e.g., permits determination of maximum sirtuin inhibition). A control for activation of sirtuin activity was conducted using 10 nM of sirtuin protein, with 1 μL of DMSO in place of compound, to determine the amount of deacetylation of the substrate at a given time point within the linear range of the assay. This time point was the same as that used for test compounds and, within the linear range, the endpoint represents a change in velocity. For the above assay, SIRT1 protein was expressed and purified as follows. The SirT1 gene was cloned into a T7-promoter containing vector and transformed into BL21(DE3). The protein was expressed by induction with 1 mM IPTG as an N-terminal His-tag fusion protein at 18° C. overnight and harvested at 30,000×g. Cells were lysed with lysozyme in lysis buffer (50 mM Tris-HCl, 2 mM Tris[2-carboxyethyl] phosphine (TCEP), 10 μM ZnCl2, 200 mM NaCl) and further treated with sonication for 10 min for complete lysis. The protein was purified over a Ni-NTA column (Amersham) and fractions containing pure protein were pooled, concentrated and run over a sizing column (Sephadex S200 26/60 global). The peak containing soluble protein was collected and run on an Ion-exchange column (MonoQ). Gradient elution (200 mM-500 mM NaCl) yielded pure protein. This protein was concentrated and dialyzed against dialysis buffer (20 mM Tris-HCl, 2 mM TCEP) overnight. The protein was aliquoted and frozen at −80° C. until further use.
Sirtuin-modulating compounds of Formula (I) that activated SIRT1 were identified using the assay described above and are shown below in Table 1. The EC1.5 values represent the concentration of test compounds that result in 150% activation of SIRT1. The EC1.5 values for the activating compounds of Formula (I) are represented by A (EC1.5<1 μM), B (EC1.5 1−25 μM), C (EC1.5>25 μM). […]

SIRT1 [2] = biological target: T1, SIRT1; assay: Trp mass spectrometry assay of SIRT1 deacetylase activation; format: biochemical; conditions: Trp peptide substrate; for TRP EC1.5 (μM): concentration that results in 150% activation of SIRT1; for TRP % Fold Act: percent maximum fold activation relative to control (100%)
Description: as §1
The Trp mass spectrometry assay was conducted as follows. 0.5 μM peptide substrate and 120 μM βNAD^+ were incubated with 10 nM SIRT1 for 25 minutes at 25° C. in a reaction buffer (50 mM HEPES pH 7.5, […], 1 mM DTT, 0.05% BSA). The SIRT1 protein was obtained by cloning the SirT1 gene into a T7-promoter containing vector, which was then expressed in BL21(DE3) bacterial cells and purified as described in further detail below. Test compound was added at varying concentrations to this reaction mixture and the resulting reactions were monitored. After the 25 minute incubation with SIRT1, 10 μL of 10% formic acid was added to stop the reaction. The resulting reactions were sealed and frozen for later mass spec analysis. The relative SIRT1 activity was then determined by measuring the amount of O-acetyl-ADP-ribose (OAADPR) formed (or, alternatively, the amount of deacetylated Trp peptide generated) by the NAD-dependent sirtuin deacetylation reaction in the presence of varying concentrations of the test compound versus control reactions lacking the test compound. The degree to which the test agent activated deacetylation by SIRT1 was expressed as EC1.5 (i.e., the concentration of compound required to increase SIRT1 activity by 50% over the control lacking test compound), and Percent Maximum Activation (i.e., the maximum activity relative to control (100%) obtained for the test compound).
as §2
Sirtuin-modulating compounds of Formula (I) that activated SIRT1 were identified using the assay described above and are shown below in Table 1. […]

| SMILES | TAMRA EC1.5 (μM) (SIRT1 [1]) | TAMRA % Fold Act (SIRT1 [1]) | TRP EC1.5 (μM) (SIRT1 [2]) | TRP % Fold Act (SIRT1 [2]) |
| --- | --- | --- | --- | --- |
| Cc1cnc(NC(=O)c2ccnn3cc(-c4ccccc4C(F)(F)F)nc23)s1 [Compound 14] | A (EC1.5<1 μM) | B (Fold Activation<350%) | C (EC1.5>25 μM) | B (Fold Activation<350%) |
| O=C(Nc1cccc(N2CCOCC2)n1)c1ccnn2cc(-c3ccccc3C(F)(F)F)nc12 [Compound 16] | A (EC1.5<1 μM) | A (Fold activation≧350%) | C (EC1.5>25 μM) | B (Fold Activation<350%) |
| O=C(Nc1nccs1)c1ccnn2cc(-c3cccc(C(F)(F)F)c3)nc12 [Compound 17] | C (EC1.5>25 μM) | B (Fold Activation<350%) | C (EC1.5>25 μM) | B (Fold Activation<350%) |
| Cc1cnc(NC(=O)c2ccnn3cc(-c4cccc(C(F)(F)F)c4)nc23)s1 [Compound 18] | C (EC1.5>25 μM) | B (Fold Activation<350%) | C (EC1.5>25 μM) | B (Fold Activation<350%) |
| O=C(Nc1nccs1)c1ccnn2cc(-c3cccc(Cl)c3)nc12 [Compound 21] | C (EC1.5>25 μM) | B (Fold Activation<350%) | C (EC1.5>25 μM) | B (Fold Activation<350%) |
| O=C(Nc1ccccn1)c1cc(N2CCOCC2)nn2cc(-c3cccc(F)c3)nc12 [Compound 27] | C (EC1.5>25 μM) | B (Fold Activation<350%) | C (EC1.5>25 μM) | B (Fold Activation<350%) |
| O=C(Nc1cccnc1)c1cc(N2CCOCC2)nn2cc(-c3cccc(F)c3)nc12 [Compound 28] | C (EC1.5>25 μM) | B (Fold Activation<350%) | C (EC1.5>25 μM) | B (Fold Activation<350%) |
| O=C(Nc1ccncc1)c1cc(N2CCOCC2)nn2cc(-c3cccc(F)c3)nc12 [Compound 29] | C (EC1.5>25 μM) | B (Fold Activation<350%) | C (EC1.5>25 μM) | B (Fold Activation<350%) |
| O=C(Nc1nccs1)c1cc(N2CCOCC2)nn2cc(-c3cccc(Cl)c3)nc12 [Compound 30] | C (EC1.5>25 μM) | B (Fold Activation<350%) | C (EC1.5>25 μM) | B (Fold Activation<350%) |

Continued, values first:

| TAMRA EC1.5 (μM) (SIRT1 [1]) | TAMRA % Fold Act (SIRT1 [1]) | TRP EC1.5 (μM) (SIRT1 [2]) | TRP % Fold Act (SIRT1 [2]) | SMILES |
| --- | --- | --- | --- | --- |
| C (EC1.5>25 μM) | B (Fold Activation<350%) | C (EC1.5>25 μM) | B (Fold Activation<350%) | O=C(Nc1ccccn1)c1cc(N2CCOCC2)nn2cc(-c3cccc(Cl)c3)nc12 [Compound 32] |
| C (EC1.5>25 μM) | B (Fold Activation<350%) | C (EC1.5>25 μM) | B (Fold Activation<350%) | O=C(Nc1cccnc1)c1cc(N2CCOCC2)nn2cc(-c3cccc(Cl)c3)nc12 [Compound 33] |
| C (EC1.5>25 μM) | B (Fold Activation<350%) | C (EC1.5>25 μM) | B (Fold Activation<350%) | O=C(Nc1ccccn1)c1cc(N2CCOCC2)nn2cc(-c3ccccc3Cl)nc12 [Compound 36] |
| C (EC1.5>25 μM) | B (Fold Activation<350%) | C (EC1.5>25 μM) | B (Fold Activation<350%) | O=C(Nc1nccs1)c1cc(N2CCOCC2)nn2cc(-c3ccccc3F)nc12 [Compound 37] |
| C (EC1.5>25 μM) | B (Fold Activation<350%) | C (EC1.5>25 μM) | B (Fold Activation<350%) | O=C(Nc1ccccn1)c1cc(N2CCOCC2)nn2cc(-c3ccccc3F)nc12 [Compound 39] |
| C (EC1.5>25 μM) | B (Fold Activation<350%) | C (EC1.5>25 μM) | B (Fold Activation<350%) | O=C(Nc1cccnc1)c1cc(N2CCOCC2)nn2cc(-c3ccccc3F)nc12 [Compound 40] |
| C (EC1.5>25 μM) | B (Fold Activation<350%) | C (EC1.5>25 μM) | B (Fold Activation<350%) | O=C(Nc1ccncc1)c1cc(N2CCOCC2)nn2cc(-c3ccccc3F)nc12 [Compound 41] |
| B (EC1.5 1−25 μM) | B (Fold Activation<350%) | C (EC1.5>25 μM) | B (Fold Activation<350%) | O=C(Nc1nccs1)c1cc(N2CCOCC2)nn2cc(-c3ccccc3C(F)(F)F)nc12 [Compound 42] |
| A (EC1.5<1 μM) | B (Fold Activation<350%) | C (EC1.5>25 μM) | B (Fold Activation<350%) | Cc1cnc(NC(=O)c2cc(N3CCOCC3)nn3cc(-c4ccccc4C(F)(F)F)nc23)s1 [Compound 43] |
